pIC50: −log10 of the molar value.
Target: T1, HDAC6 (Homo sapiens, UniProt Q9UBN7)
T1 sequence (Q9UBN7 1-1215): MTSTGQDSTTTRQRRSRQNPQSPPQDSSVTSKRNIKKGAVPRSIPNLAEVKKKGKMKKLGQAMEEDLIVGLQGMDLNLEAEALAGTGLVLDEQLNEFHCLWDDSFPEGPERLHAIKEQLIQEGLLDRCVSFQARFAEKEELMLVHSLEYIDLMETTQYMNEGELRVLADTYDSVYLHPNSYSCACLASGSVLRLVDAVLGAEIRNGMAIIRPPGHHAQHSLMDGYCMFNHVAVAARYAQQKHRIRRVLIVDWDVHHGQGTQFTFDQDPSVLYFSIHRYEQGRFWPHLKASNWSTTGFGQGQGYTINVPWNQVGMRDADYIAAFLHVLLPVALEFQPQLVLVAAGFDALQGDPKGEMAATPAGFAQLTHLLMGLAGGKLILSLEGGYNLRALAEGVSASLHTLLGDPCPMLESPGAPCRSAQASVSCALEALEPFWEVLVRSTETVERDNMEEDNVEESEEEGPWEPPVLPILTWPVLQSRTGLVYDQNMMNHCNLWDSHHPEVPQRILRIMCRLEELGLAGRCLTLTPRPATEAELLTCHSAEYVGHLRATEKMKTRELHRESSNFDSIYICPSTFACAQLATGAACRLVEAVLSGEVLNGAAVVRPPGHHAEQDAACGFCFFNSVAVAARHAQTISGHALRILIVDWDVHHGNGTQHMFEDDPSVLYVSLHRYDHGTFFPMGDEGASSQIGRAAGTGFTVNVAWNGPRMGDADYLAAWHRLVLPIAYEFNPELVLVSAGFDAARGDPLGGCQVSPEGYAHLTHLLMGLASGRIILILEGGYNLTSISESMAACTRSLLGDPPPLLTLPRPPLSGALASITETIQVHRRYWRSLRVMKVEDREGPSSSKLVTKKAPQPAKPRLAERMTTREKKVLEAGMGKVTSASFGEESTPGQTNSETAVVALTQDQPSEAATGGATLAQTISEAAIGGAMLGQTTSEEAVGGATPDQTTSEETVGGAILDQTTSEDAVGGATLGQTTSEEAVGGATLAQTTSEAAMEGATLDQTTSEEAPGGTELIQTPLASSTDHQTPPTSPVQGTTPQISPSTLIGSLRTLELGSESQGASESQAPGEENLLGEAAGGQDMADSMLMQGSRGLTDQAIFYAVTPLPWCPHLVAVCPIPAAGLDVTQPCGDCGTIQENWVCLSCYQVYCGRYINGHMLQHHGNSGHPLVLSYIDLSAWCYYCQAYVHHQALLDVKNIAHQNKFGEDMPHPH
Assay: In vitro histone deacetylase assay: enzymatic HDAC6 electrophoretic mobility shift assay
Format: biochemical
Conditions: full length human recombinant HDAC6, 1 nM enzyme, 2 μM peptide substrate RHKK(Ac)-NH2, 25° C.; read-out: Inhibitory Concentration (IC50) Values for Representative Compounds against HDAC6, Activity Range
Protocol: The enzymatic HDAC6 assay was performed using electrophoretic mobility shift assay. […] The enzymatic reactions were assembled in 384 well plates in a total volume of 25 μL in a reaction buffer composing: 100 mM HEPES, pH7.5, 25 mM KCl, 0.1% bovine serum albumin, 0.01% Triton X-100, 1% DMSO (from compounds) 2 μM of the fluorescently labeled peptide substrate and enzyme. The enzyme was added at a final concentration of 1 nM. The peptide substrate RHKK(Ac)-NH2 was used. The compounds were tested at 12 concentrations spaced by 3× dilution intervals. Negative control samples (0%-inhibition in the absence of inhibitor) and positive control samples (100%-inhibition) were assembled in replicates of four in each assay plate. The reactions were incubated at 25° C. and quenched by the addition of 45 μL of termination buffer (100 mM HEPES, pH 7.5, 0.01% Triton X-100, 0.05% SDS).
The terminated assay plates were analyzed on LabChip® 3000 microfluidic electrophoresis instrument (Perkin Elmer/Caliper Life Sciences). The fluorescence intensity of the electrophoretically separated de-acetylated product and substrate peptide was measured. Activity in each sample was determined as the product to sum ratio (PSR): P/(S+P), where P is the peak height of the product peptide and S is the peak height of the substrate peptide. Percent inhibition (Pinh) is determined using the following equation:
Pinh=(PSR0%−PSRinh)/(PSR0%−PSR100%)*100, where PSRinh is the product sum ratio in the presence of inhibitor, PSR0% is the average product sum ration in the absence of inhibitor and PSR100% is the average product sum ratio in 100%-inhibition control samples. The IC50 values of inhibitors were determined by fitting the %-inhibition curves with 4 parameter dose-response model using XLfit 4 software.

| SMILES | pIC50 |
| --- | --- |
| O=C(NO)c1ccc2c(c1)OCCN(c1nc3ccccc3n1CC1CCCCC1)C2 | 6.30 to 7.00 |
| O=C(NO)c1ccc2c(c1)OCCN(c1nc3ccccc3o1)C2 | ≥ 7.00 |
| CN(C)CCN1CCOc2cc(C(=O)NO)ccc2C1 | < 6.30 |
| CC(C)(C)Oc1ccc(CN2CC(=O)Nc3ccc(C(=O)NO)cc3C2)cc1 | 6.30 to 7.00 |
| COc1ccc(OC(=O)N2CCOc3cc(C(=O)NO)ccc3C2)cc1 | ≥ 7.00 |
| CC(C)N1CCC(CN2CC(=O)Nc3ccc(C(=O)NO)cc3C2)CC1 | < 6.30 |
| O=C1CN(Cc2ccc(-n3cccc3)cc2)Cc2cc(C(=O)NO)ccc2N1 | ≥ 7.00 |
| O=C1CN(Cc2ccc(-c3nccs3)cc2)Cc2cc(C(=O)NO)ccc2N1 | ≥ 7.00 |
| O=C(NO)c1ccc2c(c1)OCCN(c1nc3ccccc3n1CC1CCOCC1)C2 | 6.30 to 7.00 |
| O=C1CN(Cc2ccnc(N3CCOCC3)c2)Cc2cc(C(=O)NO)ccc2N1 | 6.30 to 7.00 |
| COc1ccc(CN2Cc3ccc(C(=O)NO)cc3OCC2(C)C)cc1 | 6.30 to 7.00 |
| COc1ccc(CN2CCOc3ccc(C(=O)NO)cc3C2)nc1 | < 6.30 |
| COc1ccc(CN2CCOc3cc(C(=O)NO)ccc3C2)nc1 | 6.30 to 7.00 |
| COc1ccc(CN2CCOc3ccc(C(=O)NO)cc3C2)cn1 | < 6.30 |
| COc1ccc(CN2CCOc3cc(C(=O)NO)ccc3C2)cn1 | 6.30 to 7.00 |
| O=C1CN(Cc2ccn3ccnc3c2)Cc2cc(C(=O)NO)ccc2N1 | 6.30 to 7.00 |
| O=C1CN(Cc2ccc3ccccc3c2)Cc2cc(C(=O)NO)ccc2N1 | ≥ 7.00 |
| O=C(NO)c1ccc2c(c1)OCCN(C(=O)N1CCCCC1)C2 | ≥ 7.00 |
| O=C(NO)c1ccc2c(c1)OCCN(S(=O)(=O)N1CCCCC1)C2 | ≥ 7.00 |
| CN(C(=O)N1CCOc2cc(C(=O)NO)ccc2C1)c1ccccc1 | < 6.30 |
| C[C@@H]1CN(c2ccccc2)Cc2ccc(C(=O)NO)cc2O1 | 6.30 to 7.00 |
| COc1ccc(S(=O)(=O)N2Cc3ccc(C(=O)NO)cc3O[C@H](C)C2)cc1 | 6.30 to 7.00 |
| COc1ccc(CN2Cc3ccc(C(=O)NO)cc3O[C@H](C)C2)cc1 | 6.30 to 7.00 |
| COc1ccc(NC(=O)N2Cc3ccc(C(=O)NO)cc3O[C@H](C)C2)cc1 | 6.30 to 7.00 |
| C[C@H]1CN(c2ccccc2)Cc2ccc(C(=O)NO)cc2O1 | < 6.30 |
| COc1ccc(S(=O)(=O)N2Cc3ccc(C(=O)NO)cc3O[C@@H](C)C2)cc1 | < 6.30 |
| COc1ccc(CN2Cc3ccc(C(=O)NO)cc3O[C@@H](C)C2)cc1 | 6.30 to 7.00 |

| SMILES | pIC50 |
| --- | --- |
| COc1ccc(NC(=O)N2Cc3ccc(C(=O)NO)cc3O[C@@H](C)C2)cc1 | ≥ 7.00 |
| CC(C)[C@@H]1COc2cc(C(=O)NO)ccc2CN1 | ≥ 7.00 |
| COc1ccc(CN2Cc3ccc(C(=O)NO)cc3OC[C@H]2C(C)C)cc1 | ≥ 7.00 |
| CC(C)[C@@H]1COc2cc(C(=O)NO)ccc2CN1C | ≥ 7.00 |
| CC(C)[C@@H]1COc2cc(C(=O)NO)ccc2CN1c1ccccc1 | 6.30 to 7.00 |
| COc1ccc(NC(=O)N2Cc3ccc(C(=O)NO)cc3OC[C@H]2C(C)C)cc1 | 6.30 to 7.00 |
| CC(C)[C@H]1COc2cc(C(=O)NO)ccc2CN1 | ≥ 7.00 |
| COc1ccc(CN2Cc3ccc(C(=O)NO)cc3OC[C@@H]2C(C)C)cc1 | ≥ 7.00 |
| CC(C)[C@H]1COc2cc(C(=O)NO)ccc2CN1C | ≥ 7.00 |
| CC(C)[C@H]1COc2cc(C(=O)NO)ccc2CN1c1ccccc1 | ≥ 7.00 |
| COCCN(C)C(=O)N1Cc2ccc(C(=O)NO)cc2OC[C@@H]1C | ≥ 7.00 |
| COc1ccc(NC(=O)N2Cc3ccc(C(=O)NO)cc3OC[C@@H]2C(C)C)cc1 | ≥ 7.00 |
| O=C(NO)c1ccc2c(c1)OCCN(C(=O)OC1CCCCC1)C2 | ≥ 7.00 |
| O=C1CN(Cc2ccccc2)Cc2cc(C(=O)NO)ccc2N1 [4-benzyl-N-hydroxy-2-oxo-2,3,4,5-tetrahydro-1H-benzo[e][1,4]diazepine-7-carboxamide] | 6.30 to 7.00 |
| O=C(NO)c1ccc2c(c1)OCCN(C1CCCCC1)C2 [4-cyclohexyl-N-hydroxy-2,3,4,5-tetrahydrobenzo[f][1,4]oxazepine-8-carboxamide] | < 6.30 |
| C[C@H]1COc2cc(C(=O)NO)ccc2CN1C(=O)Oc1ccc(F)cc1 [4-fluorophenyl(S)-8-(hydroxycarbamoyl)-3-methyl-2,3-dihydrobenzo[f][1,4]oxazepine-4(5H)-carboxylate] | ≥ 7.00 |
| CC(c1ccc(F)cc1)N1Cc2ccc(C(=O)NO)cc2OC[C@@H]1C (stereo partly drawn) [(3S)-4-(1-(4-fluorophenyl)ethyl)-N-hydroxy-3-methyl-2,3,4,5-tetrahydrobenzo[f][1,4]oxazepine-8-carboxamide] | 6.30 to 7.00 |
| C[C@H]1COc2cc(C(=O)NO)ccc2CN1CCC1CCCO1 (stereo partly drawn) [(3S)-N-hydroxy-3-methyl-4-(2-(tetrahydrofuran-2-yl)ethyl)-2,3,4,5-tetrahydrobenzo[f][1,4]oxazepine-8-carboxamide] | ≥ 7.00 |
| CC1CCCCN1C(=O)N1Cc2ccc(C(=O)NO)cc2OC[C@@H]1C (stereo partly drawn) [(3S)-N-hydroxy-3-methyl-4-(2-methylpiperidine-1-carbonyl)-2,3,4,5-tetrahydrobenzo[f][1,4]oxazepine-8-carboxamide] | ≥ 7.00 |
| CC1COCCN1C(=O)N1Cc2ccc(C(=O)NO)cc2OC[C@@H]1C (stereo partly drawn) [(3S)-N-hydroxy-3-methyl-4-(3-methylmorpholine-4-carbonyl)-2,3,4,5-tetrahydrobenzo[f][1,4]oxazepine-8-carboxamide] | ≥ 7.00 |
| C[C@H]1COc2cc(C(=O)NO)ccc2CN1CC1CCCO1 (stereo partly drawn) [(3S)-N-hydroxy-3-methyl-4-((tetrahydrofuran-2-yl)methyl)-2,3,4,5-tetrahydrobenzo[f][1,4]oxazepine-8-carboxamide] | ≥ 7.00 |
| COC1CCN(C(=O)N2Cc3ccc(C(=O)NO)cc3OC[C@@H]2C)C1 (stereo partly drawn) [(3S)-N-hydroxy-4-(3-methoxypyrrolidine-1-carbonyl)-3-methyl-2,3,4,5-tetrahydrobenzo[f][1,4]oxazepine-8-carboxamide] | ≥ 7.00 |
| COC[C@H]1CN(C(=O)Nc2ccc(OC)cc2)Cc2ccc(C(=O)NO)cc2O1 [(R)-N8-hydroxy-2-(methoxymethyl)-N4-(4-methoxyphenyl)-2,3-dihydrobenzo[f][1,4]oxazepine-4,8(5H)-dicarboxamide] | 6.30 to 7.00 |
| COc1ccc(NC(=O)N2Cc3ccc(C(=O)NO)cc3O[C@H](C(C)C)C2)cc1 [(R)-N8-hydroxy-2-isopropyl-N4-(4-methoxyphenyl)-2,3-dihydrobenzo[f][1,4]oxazepine-4,8(5H)-dicarboxamide] | < 6.30 |
| COc1ccc(NC(=O)N2Cc3ccc(C(=O)NO)cc3O[C@H](c3ccccc3)C2)cc1 [(R)-N8-hydroxy-N4-(4-methoxyphenyl)-2-phenyl-2,3-dihydrobenzo[f][1,4]oxazepine-4,8(5H)-dicarboxamide] | 6.30 to 7.00 |
| COC[C@@H]1COc2cc(C(=O)NO)ccc2CN1c1ccccc1C [(R)-N-hydroxy-3-(methoxymethyl)-4-(o-tolyl)-2,3,4,5-tetrahydrobenzo[f][1,4]oxazepine-8-carboxamide] | ≥ 7.00 |
| COC[C@@H]1COc2cc(C(=O)NO)ccc2CN1C [(R)-N-hydroxy-3-(methoxymethyl)-4-methyl-2,3,4,5-tetrahydrobenzo[f][1,4]oxazepine-8-carboxamide] | ≥ 7.00 |
